Literature values as cited in patent US9457010B2, “Compositions for use in treating or preventing metabolic stress-induced lung injury and methods for increasing physical capacity of mammalian livestock” (Nutri-fit GmbH & Co. KG, priority 2009, dated 2016).

Test system: pulmonary function
Conditions: 3 weeks isocaloric diet; endotoxin challenge

Question: For `CCCCC/C=C\C/C=C\CCCCCCCC(=O)O` [linoleate], which “histological evidence in lung” value is on record?
Answer: vascular congestion, intra-alveolar edema and alveolar septa thickening
